Tests used:
[1] = system: Wild Pointsettia (Euphorbia heterophylla); experiment: General postemergence herbicidal activity, EPHHL; assay type: in vivo; conditions: post-emergent, 280 g ai/ha, visual score after 14 days (0 = no injury, 100 = complete kill)
Experimental: (§1) Seeds or nutlets of the desired test plant species were planted in Sun Gro MetroMix® 306 planting mixture, which typically has a pH of 6.0 to 6.8 and an organic matter content of about 30 percent, in plastic pots with a surface area of 64 square centimeters. When required to ensure good germination and healthy plants, a fungicide treatment and/or other chemical or physical treatment was applied. The plants were grown for 7-21 days in a greenhouse with an approximate 15 hour photoperiod which was maintained at about 23-29° C. during the day and 22-28° C. during the night. Nutrients and water were added on a regular basis and supplemental lighting was provided with overhead metal halide 1000-Watt lamps as necessary. The plants were employed for testing when they reached the first or second true leaf stage.
(§2) A weighed amount, determined by the highest rate to be tested, of each test compound was dissolved in 4 mL of a 97:3 v/v (volume/volume) mixture of acetone and dimethyl sulfoxide (DMSO) to obtain concentrated stock solutions. […] The concentrated stock solutions obtained were diluted with 20 mL of an aqueous mixture containing acetone, water, isopropyl alcohol, DMSO, Atplus 411F crop oil concentrate, and Triton® X-155 surfactant in a 48.5:39:10:1.5:1.0:0.02 v/v ratio to obtain spray solutions containing the highest application rates. […]
(§3) The treated plants and control plants were placed in a greenhouse as described above and watered by sub-irrigation to prevent wash-off of the test compounds. After 14 days, the condition of the test plants as compared with that of the untreated plants was determined visually and scored on a scale of 0 to 100 percent where 0 corresponds to no injury and 100 corresponds to complete kill.

[2] = system: Redroot Pigweed (Amatanthus retroflexus); experiment: General postemergence herbicidal activity, AMARE; assay type: in vivo; conditions: post-emergent, 280 g ai/ha, visual score after 14 days (0 = no injury, 100 = complete kill)
Experimental: as §1, §2, §3

[3] = system: Lambsquarters (Chenopodium album); experiment: General postemergence herbicidal activity, CHEAL; assay type: in vivo; conditions: post-emergent, 280 g ai/ha, visual score after 14 days (0 = no injury, 100 = complete kill)
Experimental: as §1, §2, §3

[4] = system: Common Sunflower (Helianthus annuus); experiment: General postemergence herbicidal activity, HELAN; assay type: in vivo; conditions: post-emergent, 280 g ai/ha, visual score after 14 days (0 = no injury, 100 = complete kill)
Experimental: as §1, §2, §3

SMILES	% Growth Reduction EPHHL [1]	melting point	% Growth Reduction AMARE [2]	% Growth Reduction CHEAL [3]	% Growth Reduction HELAN [4]
COC(=O)c1nc(-c2ccc(Cl)c(OC)c2F)nc(O)c1Br [Compound 2, 6-hydroxy-2-(4-chloro-2-fluoro-3-methoxyphenyl)-5-bromopyrimidine-4-carboxylic acid methyl ester]	100%	192 to 195 °C	100%	95%	85%
COC(=O)c1nc(-c2ccc(Cl)c(OC)c2F)nc(O)c1OC [Compound 3, 6-hydroxy-2-(4-chloro-2-fluoro-3-methoxyphenyl)-5-methoxypyrimidine-4-carboxylic acid methyl ester]	100%	177 to 179 °C	40%	90%	10%
COC(=O)c1nc(-c2ccc(Cl)c(OC)c2F)nc(O)c1Cl [Compound 1, 6-hydroxy-2-(4-chloro-2-fluoro-3-methoxyphenyl)-5-chloropyrimidine-4-carboxylic acid methyl ester]	100%	215 to 217 °C	100%	100%	90%

— patent US7833940B2, “2-(substituted phenyl)-6-hydroxy or alkoxy-5-substituted-4-pyrimidinecarboxylates and their use as herbicides” (Dow AgroSciences LLC, priority 2008, dated 2010)
